Measurements published in ChEMBL document CHEMBL1126918, “Analysis of two cycloplatinated compounds derived from N-(4-methoxyphenyl)-alpha-benzoylbenzylidenamine. Comparison of the activity of these compounds with other isostructural cyclopalladated compounds” (J Med Chem, 1993).

What was measured:
HL-60 = experiment: Tested for inhibition against leukemic HL-60 (human cancer) cell lines; format: functional, cell-based
MDA-MB-468 = experiment: Tested for inhibition against mammary cancer MDA-MB 468 (breast carcinoma) cell lines; format: functional, cell-based; conditions: Homo sapiens

With CISPLATIN the ID50 (HL-60) was 2300 nM and the ID50 (MDA-MB-468) was 3300 nM.
